This is an account of results in patent publication US20070202578A1, “Production of globosides oligosaccharides using metabolically engineered microorganisms” (priority 2005, published 2007).

This test addresses T1, LgtD protein (Haemophilus influenzae, UniProt Q57287).
T1 construct: made in house; host or cells: strain overexpressing lgtD; E. coli K12 derivative is inferred from the lgtD strains described, e.g. TA21 with pACT3-lgtD; used as crude extract
In words: enzymatic assays with crude extracts from a strain overexpressing the lgtD gene (donor Km with globotriose or globotetraose as acceptor). The test is classed as biochemical.

T1 sequence (Q57287 whole entry): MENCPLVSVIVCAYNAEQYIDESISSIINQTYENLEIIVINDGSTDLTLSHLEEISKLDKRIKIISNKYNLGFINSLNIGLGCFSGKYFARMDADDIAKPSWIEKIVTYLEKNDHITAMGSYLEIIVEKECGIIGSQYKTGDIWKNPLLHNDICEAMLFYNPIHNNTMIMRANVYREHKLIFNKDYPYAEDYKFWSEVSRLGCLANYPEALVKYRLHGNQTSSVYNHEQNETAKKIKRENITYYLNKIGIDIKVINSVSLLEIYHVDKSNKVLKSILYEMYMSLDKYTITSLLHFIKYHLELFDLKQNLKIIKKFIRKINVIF

With `CC(=O)N[C@H]1[C@@H](OP(=O)(O)OP(=O)(O)OC[C@H]2O[C@@H](n3ccc(=O)[nH]c3=O)[C@H](O)[C@@H]2O)O[C@H](CO)[C@H](O)[C@@H]1O` [UDP-GalNAc], for the setting “globotriose as the acceptor”, the “Km for UDP-GalNAc, fold lower than for UDP-Gal” value came out at 6 fold. In addition, the “fold increase in the Km for UDP-GalNAc” value (replacement of globotriose by globotetraose as the acceptor) came out at 20 fold.
